Data as given in ChEMBL document CHEMBL5728520, “Carboxamide-pyrimidine derivatives as SHP2 antagonists” (2021).

biological target: T1, Tyrosine-protein phosphatase non-receptor type 11 (Homo sapiens, UniProt Q06124); assay: Biochemical Assay: The inhibition of SHP2 by compounds of the invention was monitored using the surrogate substrate DiFMUP after protein activation by a peptide bearing two appropriately spaced phosphotyrosine. Full length SHP2 protein (Recombinant HumanSHP-2, E. coli derived Ser2Arg593, N-terminal 6His tag from R&D systems; […]) was incubated with activating peptide, IRSI_2pY (New England Peptide, 140 nM) and DiFMUP (molecular probes, 80 uM) at RT in buffer (HEPES pH 7.2 60 mM, DDT 5 mM, KCl 75 mM, NaCl 75 mM, EDTA 1 mM, Tween 20 0.05%) in presence of compound (10 concentrations range, top concentration 50 Î¼M) for 60 min. The generation of the DiFMU product by activated SHP2 was monitored through Fluorescence measurement with a PerkinElmer Envision reader.
T1 sequence (Q06124 whole entry): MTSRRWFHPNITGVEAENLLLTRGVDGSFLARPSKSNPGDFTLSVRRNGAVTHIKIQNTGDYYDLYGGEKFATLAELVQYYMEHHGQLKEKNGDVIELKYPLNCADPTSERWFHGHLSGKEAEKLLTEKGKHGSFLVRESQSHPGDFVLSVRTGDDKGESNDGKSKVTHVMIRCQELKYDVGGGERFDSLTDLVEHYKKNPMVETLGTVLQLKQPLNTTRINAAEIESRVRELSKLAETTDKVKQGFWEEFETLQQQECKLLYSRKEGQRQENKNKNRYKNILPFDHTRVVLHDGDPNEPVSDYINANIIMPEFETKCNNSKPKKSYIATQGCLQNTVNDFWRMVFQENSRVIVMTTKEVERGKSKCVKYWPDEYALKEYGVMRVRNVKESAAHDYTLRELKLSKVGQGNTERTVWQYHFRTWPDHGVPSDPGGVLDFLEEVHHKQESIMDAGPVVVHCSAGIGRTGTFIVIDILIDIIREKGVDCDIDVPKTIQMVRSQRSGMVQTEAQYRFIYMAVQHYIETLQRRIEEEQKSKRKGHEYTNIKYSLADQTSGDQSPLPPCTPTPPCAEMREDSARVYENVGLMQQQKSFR

Row | IC50 [µM] | SMILES
1 | 0.06 | CC1(N)CCN(c2nc(Cl)c(-c3cccc(Cl)c3Cl)c(C(N)=O)n2)CC1
2 | > 10 | C[C@]12CCCCC[C@](C)(CN(c3nc(N)c(-c4cccc(Cl)c4Cl)c(C(N)=O)n3)C1)[C@H]2N
3 | 3.7 | CC1(N)CCN(c2ncc(-c3cccc(Cl)c3Cl)c(C(N)=O)n2)CC1
